{
  "source": "patent US20150343038A1",
  "about": "“METHOD AND COMPOSITION FOR TREATING SPASTICITY” (THE REGENTS OF THE UNIVERSITY OF CALIFORNIA, priority 2013, published 2015)",
  "key": {"[1]": {"tested_on": "rats with ischemic spasticity", "format": "in vivo, rat"}, "[2]": {"tested_on": "in vitro cultured neurons", "conditions": "cited from earlier work"}, "spasticity": {"tested_on": "spasticity", "conditions": "cited from earlier work; for anti-spasticity effect in clinical studies: systemic (tiagabine: clinically-acceptable doses) or spinal administration"}, "spastic patients": {"tested_on": "spastic patients", "conditions": "intrathecal treatment; cited from earlier work"}, "[3]": {"tested_on": "rats with ischemic spasticity", "conditions": "intrathecal baclofen (1 μg elsewhere in the source); previous studies, same spinal ischemia-induced spasticity model; cited from earlier work"}, "[4]": {"conditions": "human patients; cited from earlier work"}, "[5]": {"conditions": "rats; cited from earlier work"}, "[6]": {"tested_on": "lumbar gray matter extracellular GABA", "assay": "Spinal cord microdialysis, extracellular GABA by HPLC", "format": "in vivo, rat", "conditions": "tiagabine 40 mg/kg i.p., at 20-40 min", "method": "Spinal cord microdialysis was performed in naive (n=6), spastic-non treated (n=6), spastic HIV1-CMV-GFP lentivirus-injected (n=6) and spastic HIV1-CMV-GAD65-GFP (n=6) lentivirus-injected animals. Rats were anesthetized with 2% isoflurane, previous laminectomy site (in lentivirus injected animals) re-exposed and concentric microdialysis probe (A-2-8-02; cut off: MW 50,000; EICOM, Japan) placed into central gray matter between L3-L6 spinal cord segments. Microdialysis fiber was perfused with artificial CSF at 2 μl/min and samples collected on dry ice. After 120 min washout samples were collected in 20 min intervals before and after tiagabine (40 mg/kg, i.p.) injections and analyzed for GABA using HPLC (HTEC-500; EICOM)."}, "[7]": {"tested_on": "rats with ischemic spasticity", "assay": "Hoffmann reflex (H-wave amplitude) during high frequency (20 Hz) stimulation", "format": "in vivo, rat", "method": "H-reflex was recorded as previously described. Under ketamine anesthesia (100 mg/kg/hr, i.m.) the right hind limb of the animal was secured and a pair of stimulating needle electrodes was transcutaneously inserted into the surroundings of the tibial nerve. For recording, a pair of silver needle electrodes was placed into the interosseous muscles between the fourth and the fifth or the first and the second metatarsal right foot muscles. The tibial nerve was stimulated using square pulses with increasing stimulus intensity (0.1-10 mA in 0.5 mA increments, 0.1 Hz, 0.2 ms; WPI; Isostim A320) and responses were recorded with an A/C-coupled differential amplifier (Model DB4; DPI, Sarasota, Fla.). After the M-max and H-max responses were identified the intensity of stimulus which evoked H-max amplitudes were used in subsequent high frequency (20 Hz) stimulation experiment. In HIV1-CMVGAD65-GFP (n=6) or HIV1-CMV-GFP (n=6) lentivirus-injected animals a high frequency stimulation was performed in 5 min intervals for up to 90 min after tiagabine (40 mg/kg, i.p.) injection. Changes in H-wave amplitude were then compared between both lentivirus-injected groups."}, "[8]": {"tested_on": "upper extremity motor function", "assay": "Side effects / upper extremity motor function in treated spastic rats", "format": "in vivo, rat"}, "brain extracellular GABA": {"tested_on": "brain extracellular GABA", "conditions": "after systemic administration of 11.5-21 mg/kg; cited from earlier work"}},
  "note": "Entries after “also recorded” stand apart in the source; their conditions may differ. Where two headings read alike, the source gives them in different places.",
  "data": [
    {"smiles": "NCCCC(=O)O", "note": "[GABA, gamma-aminobutryic acid]", "values": [
      {"measurement": "anti-spasticity effect", "setting": "[1]; GABA 1 mg intrathecal alone, measured for 60 min", "result": "No significant anti-spasticity effect"},
      {"measurement": "concentrations required to exert receptor-mediated effect", "setting": "[2]", "result": "1 to 2", "unit": "µmol"}
    ]},
    {"smiles": "NCC(CC(=O)O)c1ccc(Cl)cc1", "note": "(stereo not shown) [baclofen]", "values": [
      {"measurement": "anti-spasticity effect in clinical studies", "setting": "spasticity", "result": "most potent anti-spasticity pharmacological treatment"},
      {"measurement": "major side effects limiting chronic use", "setting": "spasticity; systemic or spinally-administered", "result": "general sedation and progressive tolerance development"},
      {"measurement": "H-reflex activity", "setting": "spastic patients", "result": "significant suppression of H-reflex activity"},
      {"measurement": "anti-spasticity effect", "setting": "[3]", "result": "potent anti-spasticity effect; also recorded: previously reported anti-spasticity effect"}
    ]},
    {"smiles": "Cc1ccsc1C(=CCCN1CCC[C@@H](C(=O)O)C1)c1sccc1C", "note": "[tiagabine]", "values": [
      {"measurement": "time of peak anti-spasticity effect after tiagabine administration", "setting": "[1]; HIV1-CMV-GAD65-GFP-injected spastic rats", "result": 25, "unit": "min"},
      {"measurement": "tiagabine doses providing significant (p<0.01) anti-spasticity effect", "setting": "[1]; dose response 1, 4, 10, 20, 40 mg/kg, at 15-25 min after injection, HIV1-CMV-GAD65-GFP-injected spastic rats", "result": "≥ 4", "unit": "mg/kg"},
      {"measurement": "anti-spasticity effect", "setting": "[1]; systemic tiagabine in spastic rats injected spinally (L2-L5) with GAD65-encoding lentivirus (HIV1-CMV-GAD65-GFP)", "result": "potent, dose-dependent reduction in spasticity; also recorded: potent and tiagabine-dose-dependent alleviation of spasticity; also recorded: potent and significant anti-spasticity effect"},
      {"measurement": "anti-spasticity effect", "setting": "[1]; tiagabine 40 mg/kg i.p. alone (monotherapy)", "result": "without anti-spasticity effect"},
      {"measurement": "anti-spasticity effect", "setting": "[1]; tiagabine 40 mg/kg i.p. followed 15 min later by intrathecal GABA 1 mg", "result": "potent and highly significant anti-spasticity effect"},
      {"measurement": "anti-spasticity effect", "setting": "[1]; tiagabine 40 mg/kg i.p. in spastic rats injected spinally with control HIV1-CMV-GFP lentivirus", "result": "no antispasicity effect; also recorded: without effect"},
      {"measurement": "serum half-life", "setting": "[4]", "result": "5 to 8", "unit": "h"},
      {"measurement": "anti-spasticity effect in clinical studies", "setting": "spasticity", "result": "only a weak or no anti-spasticity effect"},
      {"measurement": "serum half-life", "setting": "[5]", "result": 0.917, "unit": "h"},
      {"measurement": "spinal extracellular GABA concentration, change after tiagabine", "setting": "[6]; HIV1-CMV-GAD65-GFP lentivirus-injected spastic animals", "result": "significant (p<0.05) increase"},
      {"measurement": "spinal extracellular GABA concentration, change after tiagabine", "setting": "[6]; naive animals", "result": "significant (p<0.05) increase"},
      {"measurement": "change in H-wave amplitude", "setting": "[7]; tiagabine 40 mg/kg i.p., HIV1-CMV-GAD65-GFP-injected spastic rats, ketamine-sedated", "result": "significant (p<0.05) reduction"},
      {"measurement": "change in H-reflex amplitudes", "setting": "[7]; tiagabine 40 mg/kg i.p., control HIV1-CMV-GFP-injected spastic rats, up to 90 min, ketamine-sedated", "result": "no change"},
      {"measurement": "H-wave amplitude returned back to baseline by", "setting": "[7]; {}", "result": "≤ 65", "unit": "min"},
      {"measurement": "time window of significant H-wave amplitude reduction after tiagabine injection", "setting": "[7]; {}", "result": "20 to 45", "unit": "min"},
      {"measurement": "effect on upper limb motor function", "setting": "[8]; after tiagabine in spastic rats with lumbar GAD65 lentivirus injection", "result": "No detectable effect"},
      {"measurement": "side effect", "setting": "[8]; either treatment alone (GAD65-LVs injection only or tiagabine only)", "result": "nor had any detectable side effect"},
      {"measurement": "effect on upper extremity motor function", "setting": "[8]; tiagabine 40 mg/kg i.p. + intrathecal GABA 1 mg", "result": "No suppressive effect"},
      {"measurement": "increase in brain levels of extracellular GABA", "setting": "brain extracellular GABA", "result": "2-3 fold"}
    ]}
  ]
}
